These compounds were tested against T1, NK2 receptor (Cavia porcellus, UniProt Q64077) (assay: Inhibitory Action on Airway Contraction (In Vivo, Transtracheal Administration), induced by neurokinin A (NKA)). Conditions: Hartley male guinea pigs; 10 μg/kg transtracheal; NKA 4 μg/kg i.v. administered 16 hours after test substance; relative to 5% glucose control group.
T1 construct: in normal guinea pigs (body weights: about 500 g, Hartley male guinea pigs); from tissue; host or cells: airways of live Hartley male guinea pigs (in vivo)
T1 sequence (Q64077 1-402): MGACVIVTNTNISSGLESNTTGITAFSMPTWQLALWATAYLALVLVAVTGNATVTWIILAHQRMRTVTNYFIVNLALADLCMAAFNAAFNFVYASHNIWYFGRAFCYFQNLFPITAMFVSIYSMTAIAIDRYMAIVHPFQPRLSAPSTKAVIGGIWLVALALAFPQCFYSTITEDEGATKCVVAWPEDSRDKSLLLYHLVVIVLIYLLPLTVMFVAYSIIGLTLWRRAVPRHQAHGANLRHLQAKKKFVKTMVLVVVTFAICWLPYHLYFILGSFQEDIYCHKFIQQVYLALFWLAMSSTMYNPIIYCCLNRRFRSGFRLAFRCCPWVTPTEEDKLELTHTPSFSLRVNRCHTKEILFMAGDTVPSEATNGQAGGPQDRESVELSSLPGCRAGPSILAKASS
Set-up: species or system guinea pig
Excerpt: Inhibitory Action on Airway Contraction (In Vivo, Transtracheal Administration)
The inhibitory action on airway contraction by the NK2 receptor agonist, neurokinin A (NKA) was investigated using airway internal pressure as an indicator in normal guinea pigs (body weights: about 500 g, Hartley male guinea pigs) using a variation of the method of Konzett-Roessler (Naunyn-Schmiedebergs Arch. Exp. Pathol. Pharmakol. 195, 71 (1940)).
A tracheal cannula and venous cannula were implanted in the guinea pigs under pentobarbital anesthesia (50 mg/mL of liquid, 0.40 to 0.50 mL/body, s.c.). In addition, an arterial cannula filled with heparin-containing physiological saline (100 U/mL) was implanted to monitor blood pressure and heart rate via an amplifier and instantaneous cardiograph. Next, after administering gallamine (20 mg/kg, i.v.) and interrupting spontaneous respiration, positive pressure ventilation (Ugo-Basile Biological Research Apparatus, Cat. No. 7025) was rapidly carried out at 10 mL/kg and 60 times/minute. The airway internal pressure during artificial respiration was detected with a pressure transducer (Nihon Koden, TP-200T or TP-400T) implanted in the lateral branch of the tracheal cannula, amplified (Nihon Koden, AP-601G) and recorded with a recorder (Nihon Koden, WT-645G or WT-685G). After the airway internal pressure, blood pressure and heart rate had stabilized, the standard tracheal contracting substance, methacholine was administered at 10 μg/kg (100 μg/mL, 0.10 mL/kg) to confirm airway response. In the case the prescribed contraction response was not obtained, methacholine was additionally administered at 12 μg/kg (120 μg/mL, 0.10 mL/kg) followed by confirmation of airway response. Five minutes after confirming airway response, NKA was administered intravenously through the intravenous cannula at 4 μg/kg to induce airway contraction followed by measuring airway internal pressure for the next 10 minutes.
The test substance was dissolved in 5% glucose, and a 0.5 mL/kg solution was administered into the airway using an intratracheal administration instrument (1A-1B, Penn-Century).
The surface value over which airway internal pressure had increased at 10 minutes after administration of NKA was taken to represent the strength of NKA-induced airway contraction, and the inhibition rate was calculated relative to a control group (5% glucose transtracheal dose group).

Q: Which “Inhibition Rate (%) of NKA-induced airway contraction” value (“Inhibition Rate (%)” below) does the source give for Cl.O=C(CO[C@H]1Cc2ccccc2C12CCN(CC[C@@]1(c3ccc(Cl)c(Cl)c3)CN(C(=O)c3cc(C(F)(F)F)cc(C(F)(F)F)c3)CCO1)CC2)N1CCC(CCO)CC1 [Example 69, 2-(1-{[((2S)-1′-{2-[(2R)-4-[3,5-bis(Trifluoromethyl)benzoyl]-2-(3,4-dichlorophenyl)morpholin-2-yl]ethyl}-2,3-dihydrospiro[indene-1,4′-piperidin]-2-yl)oxy]acetyl}piperidin-4-yl)ethanol hydrochloride] here?
A: 88%

Q: How did the “Inhibition Rate (%)” value turn out when CN(CCCO)C(=O)CO[C@H]1Cc2ccccc2C12CCN(CC[C@@]1(c3ccc(Cl)c(Cl)c3)CN(C(=O)c3cc(C(F)(F)F)cc(C(F)(F)F)c3)CCO1)CC2.Cl [Example 64, 2-[((2S)-1′-{2-[(2R)-4-[3,5-bis(Trifluoromethyl)benzoyl]-2-(3,4-dichlorophenyl)morpholin-2-yl]ethyl}-2,3-dihydrospiro[indene-1,4′-piperidin]-2-yl)oxy]-N-(3-hydroxypropyl)-N-methylacetamide hydrochloride] was run?
A: 87%

Q: With CN(CCCCO)C(=O)CO[C@H]1Cc2ccccc2C12CCN(CC[C@@]1(c3ccc(Cl)c(Cl)c3)CN(C(=O)c3cc(C(F)(F)F)cc(C(F)(F)F)c3)CCO1)CC2.Cl [Example 58, 2-[((2S)-1′-{2-[(2R)-4-[3,5-bis(Trifluoromethyl)benzoyl]-2-(3,4-dichlorophenyl)morpholin-2-yl]ethyl}-2,3-dihydrospiro[indene-1,4′-piperidin]-2-yl)oxy]-N-(4-hydroxybutyl)-N-methylacetamide hydrochloride] as the compound, how does the “Inhibition Rate (%)” value read?
A: 90%

Q: With Cl.Cl.O=C(CN1CCOCC1)O[C@H]1Cc2ccccc2C12CCN(CC[C@@]1(c3ccc(Cl)c(Cl)c3)CN(C(=O)c3cc(C(F)(F)F)cc(C(F)(F)F)c3)CCO1)CC2 [Example 6, 1-(2-{(2R)-2-(3,4-Dichlorophenyl)-4-[3,5-bis(trifluoromethyl)benzoyl]morpholin-2-yl}ethyl)spiro((2S)-2-{[(morpholin-1-yl)acetyl]oxy})indane-1,4′-piperidine dihydrochloride] as the compound, how does the “Inhibition Rate (%)” value read?
A: 97%

Q: CN(CCO)C(=O)CO[C@H]1Cc2ccccc2C12CCN(CC[C@@]1(c3ccc(Cl)c(Cl)c3)CN(C(=O)c3cc(C(F)(F)F)cc(C(F)(F)F)c3)CCO1)CC2.Cl [Example 32, 1-(2-{(2R)-2-(3,4-Dichlorophenyl)-4-[3,5-bis(trifluoromethyl)benzoyl]morpholin-2-yl}ethyl)spiro((2S)-2-{[N-(2-hydroxyethyl)-N-methylamino]-2-oxoethoxy})indane-1,4′-piperidine hydrochloride] was tested. Which “Inhibition Rate (%)” value did it give?
A: 89%

Q: With Cl.O=C(CO[C@H]1Cc2ccccc2C12CCN(CC[C@@]1(c3ccc(Cl)c(Cl)c3)CN(C(=O)c3cc(C(F)(F)F)cc(C(F)(F)F)c3)CCO1)CC2)NCCO [Example 33, 1-(2-{(2R)-2-(3,4-Dichlorophenyl)-4-[3,5-bis(trifluoromethyl)benzoyl]morpholin-2-yl}ethyl)spiro((2S)-2-{2-[N-(2-hydroxyethyl)amino]-2-oxoethoxy})indane-1,4′-piperidine hydrochloride] as the compound, how does the “Inhibition Rate (%)” value read?
A: 93%

Q: How did the “Inhibition Rate (%)” value turn out when Cl.Cl.O=C(CO[C@H]1Cc2ccccc2C12CCN(CC[C@@]1(c3ccc(Cl)c(Cl)c3)CN(C(=O)c3cc(C(F)(F)F)cc(C(F)(F)F)c3)CCO1)CC2)N(CCO)CCO [Example 31, 1-(2-{(2R)-2-(3,4-Dichlorophenyl)-4-[3,5-bis(trifluoromethyl)benzoyl]morpholin-2-yl}ethyl)spiro((2S)-2-{2-[bis(2-hydroxyethyl)amino]-2-oxoethoxy})indane-1,4′-piperidine dihydrochloride] was run?
A: 82%

Reference: patent publication US7365067B2, “Indanol derivative” (Sankyo Company, Limited, priority 2004, dated 2008)
